Active and inactive are the calls of the source. The calls are words filed in the database; no cut-off is given here.
Legend:
[1] = system: 786-0; experiment: Inhibition of RSL3-induced ferroptosis in human 786-0 cells assessed as cell viability incubated for 24 hrs by CellTiter-LumiTM assay; format: functional, cell-based; settings: 786-0, 24 h
[2] = system: 786-0; experiment: Inhibition of RSL3-induced ferroptosis in human 786-0 cells assessed as cell protection by assessing cell morphology at 1 uM incubated for 24 hrs; format: functional, cell-based
[3] = system: 786-0; experiment: Effect on erastin-induced decrease in GSH level in human 786-0 cells at 1 uM incubated for 10 hrs by Total intracellular GSH assay; format: functional, cell-based
[4] = system: 786-0; experiment: Effect on TFRC expression in human 786-0 cells at 1 uM incubated for 2.5 hrs by Western blot analysis; format: functional, cell-based
[5] = system: 786-0; experiment: Effect on IRP1 expression in human 786-0 cells at 1 uM incubated for 2.5 hrs by western blot analysis; format: functional, cell-based
[6] = system: 786-0; experiment: Inhibition of RSL3 induced lipid-ROS accumulation in human 786-0 cells assessed as fast elimination at 1 uM measured after 0.25 to 2.5 hrs by C11-BODIPY 581/591 staining coupled with flow cytometry analysis; format: functional, cell-based; settings: time 0.25-2.5 hrs
[7] = Inhibition of RSL3 induced ferroptosis in human SK-HEP1 cells assessed as cell viability incubated for 24 hrs by CellTiter-LumiTM assay; format: functional, cell-based; settings: SK-HEP1, 24 h
[8] = system: 786-0; experiment: Metal chelating activity assessed as Fe2+ chelation in human 786-0 cells assessed as intracellular ferrous ion level at 1 uM by FerroOrange fluorescent probe based assay; format: cell-based
[9] = system: 786-0; experiment: Inhibition of RSL3 induced lipid-ROS accumulation in human 786-0 cells incubated for 2.5 hrs by C11-BODIPY 581/591 staining coupled with flow cytometry analysis; format: functional, cell-based; settings: dose 0.1-1 µM
[10] = system: 786-0; experiment: Effect on ACSL4 expression in human 786-0 cells at 1 uM incubated for 2.5 hrs by Western blot analysis; format: functional, cell-based
[11] = Suppression of autoxidation of liposomes egg ( unknown origin) phosphatidylcholine lipids as substrate at 0.1 to 2.5 uM incubated for 5 min by C11-BODIPY 581/591 dye based fluorescent assay; format: functional; settings: dose 0.1-2.5 µM
[12] = system: 786-0; experiment: Inhibition of H2O2 induced necrosis in human 786-0 cells assessed as cell viability at 1 uM incubated for 24 hrs by CellTiter-LumiTM assay; format: functional, cell-based
[13] = system: HT-1080; experiment: Anti-ferroptotic activity in human GPX4 knockout HT-1080 cells assessed as cell viability at 1 uM incubated for 24 hrs by CellTiter-LumiTM plus luminescent cell viability assay; format: functional, cell-based
[14] = Inhibition of RSL3 induced ferroptosis in H9c2 cells assessed as cell viability incubated for 24 hrs by CellTiter-LumiTM assay; format: functional, cell-based; settings: Rattus norvegicus, H9c2, 24 h
[15] = system: 786-0; experiment: Effect on SLC7A11 expression in human 786-0 cells at 1 uM incubated for 2.5 hrs by Western blot analysis; format: functional, cell-based
[16] = Antioxidant activity assessed as free radical scavenging activity incubated for 30 mins in dark by DPPH assay relative to control; format: functional
[17] = system: 786-0; experiment: Effect on IRP1 expression in human 786-0 cells in presence of 0.25 uM RSL3 at 1 uM incubated for 2.5 hrs by Western blot analysis; format: functional, cell-based
[18] = system: 786-0; experiment: Inhibition of STS induced apoptosis in human 786-0 cells assessed as cell viability at 1 uM incubated for 24 hrs by CellTiter-LumiTM assay; format: functional, cell-based
[19] = system: 786-0; experiment: Effect on FTH1 expression in human 786-0 cells in presence of 0.25 uM RSL3 at 1 uM incubated for 2.5 hrs by Western blot analysis; format: functional, cell-based
[20] = Inhibition of RSL3 induced ferroptosis in human HT-1080 cells assessed as cell viability incubated for 24 hrs by CellTiter-LumiTM assay; format: functional, cell-based; settings: HT-1080, 24 h
[21] = system: SK-HEP1; experiment: Inhibition of RSL3 induced lipid-ROS accumulation in human SK-HEP1 cells at 1 uM incubated for 0.5 hrs by C11-BODIPY 581/591 staining coupled with flow cytometry analysis; format: functional, cell-based
[22] = system: 786-0; experiment: Cytotoxicity against human 786-0 cells assessed as cell viability incubated for 24 hrs by CellTiter-LumiTM assay; format: functional
[23] = system: 786-0; experiment: Inhibition of RSL3 induced ferroptosis in human 786-0 cells assessed as cell viability in presence of iFSP1 at 1 uM measured after 24 hrs by CellTiter-LumiTM assay; format: functional, cell-based
[24] = system: 786-0; experiment: Effect on GPX4 expression in human 786-0 cells at 1 uM incubated for 2.5 hrs by Western blot analysis; format: functional, cell-based
[25] = system: 786-0; experiment: Effect on FTL expression in human 786-0 cells in presence of 0.25 uM RSL3 at 1 uM incubated for 2.5 hrs by Western blot analysis; format: functional, cell-based
[26] = Inhibition of erastin induced ferroptosis in human 786-0 cells assessed as cell viability incubated for 24 hrs by CellTiter-LumiTM assay; format: functional, cell-based; settings: 786-0, 24 h
[27] = system: SK-HEP1; experiment: Inhibition of RSL3 induced lipid-ROS accumulation in human SK-HEP1 cells at 1 uM incubated for 2.5 hrs by C11-BODIPY 581/591 staining coupled with flow cytometry analysis; format: functional, cell-based
[28] = system: 786-0; experiment: Effect on TFRC expression in human 786-0 cells in presence of 0.25 uM RSL3 at 1 uM incubated for 2.5 hrs by Western blot analysis; format: functional, cell-based
[29] = system: 786-0; experiment: Effect on FTL expression in human 786-0 cells at 1 uM incubated for 2.5 hrs by western blot analysis; format: functional, cell-based
[30] = system: 786-0; experiment: Inhibition of RSL3-induced ferroptosis in human 786-0 cells assessed as cell viability by assessing cell morphology incubated for 24 hrs by CellTiter-LumiTM plus luminescent cell viability assay; format: functional, cell-based; settings: 786-0, 24 h
[31] = system: 786-0; experiment: Effect on FTH1 expression in human 786-0 cells at 1 uM incubated for 2.5 hrs by western blot analysis; format: functional, cell-based
[32] = Inhibition of RSL3 induced ferroptosis in human MHCC97H cells assessed as cell viability incubated for 24 hrs by CellTiter-LumiTM assay; format: functional, cell-based
[33] = Antioxidant activity assessed as free radical scavenging activity at 50 uM incubated for 30 mins in dark by DPPH assay relative to control; format: functional
[34] = Metabolic stability in human plasma assessed as half life at 1 uM by LC-MS/MS analysis; format: ADME, cell-free

## COc1cc(COc2c(OC)cccc2C2N(c3ccccc3)N=C(C(C)=O)N2c2ccc(N(C)C)cc2)ccc1F (configuration not stated)
[1]
  EC50: 170 nM

## COc1cccc(C2N(c3ccccc3)N=C(C(C)=O)N2c2ccc(N(C)C)cc2)c1OCc1ccc(F)c(Cl)c1 (configuration not stated)
[1]
  EC50: 330 nM

## COc1cccc(C2N(c3ccccc3)N=C(C(C)=O)N2c2ccc(N(C)C)cc2)c1OCc1ccc(C#N)cc1 (configuration not stated)
[2]
  Activity: Active
[1]
  EC50: 150 nM

## COc1cccc(C2N(c3ccccc3)N=C(C(C)=O)N2c2ccc(N(C)C)cc2)c1OCc1ccc(C)cc1 (configuration not stated)
[2]
  Activity: Active
[1]
  EC50: 130 nM

## COc1cccc(C2N(c3ccccc3)N=C(C(C)=O)N2c2ccc(N(C)C)cc2)c1OCc1c(C)cccc1C (configuration not stated)
[2]
  Activity: Active
[1]
  EC50: 150 nM

## CC(=O)C1=NN(c2ccccc2)C(c2ccccc2OCc2ccc(Cl)cc2Cl)N1c1ccc(N(C)C)cc1 (configuration not stated)
[2]
  Activity: Active
[1]
  EC50: 390 nM

## CC(=O)C1=NN(c2ccccc2)C(c2cc(C)ccc2OCc2ccc(Cl)cc2Cl)N1c1ccc(N(C)C)cc1 (configuration not stated)
[2]
  Activity: Active
[1]
  EC50: 680 nM

## COc1cccc(C2N(c3ccccc3)N=C(C(C)=O)N2c2ccc(N(C)C)cc2)c1OCc1cccc(Br)c1 (configuration not stated)
[2]
  Activity: Active
[1]
  EC50: 120 nM

## COc1cccc(C2N(c3ccccc3)N=C(C(C)=O)N2c2ccc(N(C)C)cc2)c1OCc1ccccc1C#N (configuration not stated)
[2]
  Activity: Active
[1]
  EC50: 150 nM

## COC(=O)c1ccc(COc2c(OC)cccc2C2N(c3ccccc3)N=C(C(C)=O)N2c2ccc(N(C)C)cc2)cc1 (configuration not stated)
[3]
  Activity: inactive
[4]
  Activity: inactive
[5]
  Activity: inactive
[6]
  inhibition: Active; Eliminated As Fast As Fer-1
[7]
  EC50: 128 nM
[2]
  Activity: Active
[8]
  Activity: inactive
[9]
  inhibition: Dose-dependent-effect
[10]
  Activity: inactive
[1]
  EC50: 70 nM
[11]
  Activity: Dose-dependent-effect
[12]
  inhibition: inactive
[13]
  Activity: Active
[14]
  EC50: 171 nM
[15]
  Activity: inactive
[16]
  Activity: Active
[17]
  Activity: inactive
[18]
  inhibition: inactive
[19]
  Activity: inactive
[20]
  EC50: 317 nM
[21]
  inhibition: Active
[22]
  CC50: > 40000 nM
[23]
  inhibition: Active
[24]
  Activity: inactive
[25]
  Activity: inactive
[26]
  EC50: 52 nM
[27]
  inhibition: Active
[28]
  Activity: inactive
[29]
  Activity: inactive
[30]
  EC50: 91 nM
[31]
  Activity: inactive
[32]
  EC50: 635 nM

## COc1cccc(C2N(c3ccccc3)N=C(C(C)=O)N2c2ccc(N(C)C)cc2)c1OCc1ccc(C(F)(F)F)cc1 (configuration not stated)
[2]
  Activity: Active
[1]
  EC50: 80 nM

## COc1cccc(C2N(c3ccccc3)N=C(C(C)=O)N2c2ccc(N(C)C)cc2)c1OCc1ccccc1Cl (configuration not stated)
[2]
  Activity: Active
[1]
  EC50: 150 nM

## COc1cccc(C2N(c3ccccc3)N=C(C(C)=O)N2c2ccc(N(C)C)cc2)c1OCc1ccc(Br)cc1 (configuration not stated)
[2]
  Activity: Active
[1]
  EC50: 100 nM

## CCOC(=O)c1ccc(NC2CCCCC2)c(N)c1
[6]
  inhibition: Active
[9]
  inhibition: Dose-dependent-effect
[33]
  Activity: Active
[13]
  Activity: Active
[21]
  inhibition: Active
[27]
  inhibition: Active
[30]
  EC50: 67 nM

## COc1cccc(COc2c(OC)cccc2C2N(c3ccccc3)N=C(C(C)=O)N2c2ccc(N(C)C)cc2)c1 (configuration not stated)
[2]
  Activity: Active
[1]
  EC50: 150 nM

## COc1cccc(C2N(c3ccccc3)N=C(C(C)=O)N2c2ccc(N(C)C)cc2)c1OCc1cccc2ccccc12 (configuration not stated)
[2]
  Activity: Active
[1]
  EC50: 190 nM

## CC(=O)C1=NN(c2ccccc2)C(c2cccc(C)c2OCc2ccc(Cl)cc2Cl)N1c1ccc(N(C)C)cc1 (configuration not stated)
[2]
  Activity: Active
[1]
  EC50: 1230 nM

## Clc1cccc(CNC2=Nc3ccccc3NC23CCNCC3)c1
[33]
  Activity: Active
[21]
  inhibition: Active
[27]
  inhibition: Active

## COc1cccc(C2N(c3ccccc3)N=C(C(C)=O)N2c2ccc(N(C)C)cc2)c1OCc1cccc(Cl)c1 (configuration not stated)
[2]
  Activity: Active
[1]
  EC50: 190 nM

## Cc1c(C)c2c(c(C)c1O)CCC(C)(C(=O)O)O2 (configuration not stated)
[11]
  Activity: Dose-dependent-effect
[33]
  Activity: Active

## COc1cccc(C2N(c3ccccc3)N=C(C(C)=O)N2c2ccc(N(C)C)cc2)c1OCc1ccc(Cl)cc1 (configuration not stated)
[2]
  Activity: Active
[1]
  EC50: 120 nM

## COc1cccc(C2N(c3ccccc3)N=C(C(C)=O)N2c2ccc(N(C)C)cc2)c1OCc1ccc(Cl)cc1Cl (configuration not stated)
[2]
  Activity: Active
[1]
  EC50: 260 nM

## CC(C)[N+](C)(CCOC(=O)C1c2ccccc2Oc2ccccc21)C(C)C [PROPANTHELINE]
[34]
  half-life at 1 µM: 27.9 min

## COc1cccc(C2N(c3ccccc3)N=C(C(C)=O)N2c2ccc(N(C)C)cc2)c1OCc1cc(Cl)cc(Cl)c1 (configuration not stated)
[2]
  Activity: Active
[1]
  EC50: 3710 nM

## COc1cccc(C2N(c3ccccc3)N=C(C(C)=O)N2c2ccc(N(C)C)cc2)c1OCc1c(F)cccc1F (configuration not stated)
[2]
  Activity: Active
[1]
  EC50: 120 nM

## COc1ccc(COc2c(OC)cccc2C2N(c3ccccc3)N=C(C(C)=O)N2c2ccc(N(C)C)cc2)cc1OC (configuration not stated)
[1]
  EC50: 300 nM

## COc1cccc(C2N(c3ccccc3)N=C(C(C)=O)N2c2ccc(N(C)C)cc2)c1OCc1c(C)cc(C)cc1C (configuration not stated)
[1]
  EC50: 360 nM

## COc1cccc(C2N(c3ccccc3)N=C(C(C)=O)N2c2ccc(N(C)C)cc2)c1OCc1ccc(F)cc1 (configuration not stated)
[2]
  Activity: Active
[1]
  EC50: 140 nM

## CC(=O)C1=NN(c2ccccc2)C(c2ccc(C)cc2OCc2ccc(Cl)cc2Cl)N1c1ccc(N(C)C)cc1 (configuration not stated)
[2]
  Activity: Active
[1]
  EC50: 710 nM

## COc1cccc(C2N(c3ccccc3)N=C(C(C)=O)N2c2ccc(N(C)C)cc2)c1OCc1ccc(C(C)(C)C)cc1 (configuration not stated)
[1]
  EC50: 870 nM

## COc1cc(COc2c(OC)cccc2C2N(c3ccccc3)N=C(C(C)=O)N2c2ccc(N(C)C)cc2)cc(OC)c1OC (configuration not stated)
[1]
  EC50: 170 nM

## CC(=O)C1=NN(c2ccccc2)C(c2cc(C)c(OCc3ccc(Cl)cc3Cl)c(C)c2)N1c1ccc(N(C)C)cc1 (configuration not stated)
[1]
  EC50: 150 nM

Source: ChEMBL document CHEMBL6120996, “Discovery and optimization of 1,2,4-triazole derivatives as novel ferroptosis inhibitors” (Eur J Med Chem, 2025)
